# Data published in US20210395327A1, “Growth Hormone-Releasing Hormone Antagonists and Uses Thereof” (United States Government As Represented By The Department …, priority 2019, published 2021).
# Non-standard residues stand in square brackets, D forms with d. Residues, ends and D or L forms follow the SMILES beside them. *: point of attachment. Phenylacetyl(2,3,4,5,6-F5) = O=C(Cc1c(F)c(F)c(F)c(F)c1F)*; Phe(F5) = N[C@@H](Cc1c(F)c(F)c(F)c(F)c1F)C(=O)O; Phe(4-Cl) = N[C@@H](Cc1ccc(Cl)cc1)C(=O)O; hArg = N=C(N)NCCCC[C@H](N)C(=O)O; 12Ado = NCCCCCCCCCCCC(=O)O; Nle = CCCC[C@H](N)C(=O)O; Abu = CC[C@H](N)C(=O)O
# What was measured:
# [1] = test system: HCC1806 breast cancer cells; assay: In vitro cell viability, HCC1806; assay type: cell-based, human; conditions: Table 3B; 5 μM for 72 H; MIA-602 = 1
# Procedure: (§1) The inhibitory effects of the various synthesized GHRH antagonists were tested in cell proliferation assays in various human cancer cell lines including stomach cancer (KATOIII, N87), colon cancer (HT-29), urothelial cancer (J82, RT4), pancreatic cancer (PANC-1, CFPAC-1), prostatic cancer (PC3), breast cancer (MX-1, HCC1806), ovarian cancer (SK-OV-3, OVCAR-3) and lung cancer (HCC827, H460).
# (§2) Cell culture. Human cancer cell lines including pancreatic (PANC-1 and CFPAC-1), lung (HCC827 and H460), stomach (NCI-N87 and KATOIII), urothelial (J82, RT4), prostatic (PC3), breast (MX-1 and HCC 1806), colorectal (HT-29), and ovarian (SK-OV-3 and OVCAR-3) were obtained from the American Type Culture Collection (ATCC) and cultured at 37° C. in a humidified 95% air/5% CO2 atmosphere in the medium recommended by ATCC.
# (§3) In vitro cell viability. Cell viability was analyzed as follows: cancer cells including pancreatic (PANC-1 and CFPAC-1), lung (HCC827 and H460), stomach (NCI-N87 and KATOIII), urothelial (J82, RT4), prostatic (PC3) and breast (MX-1 and HCC 1806), colorectal (HT-29) and ovarian (SK-OV-3 and OVCAR-3) were grown on 96 well plates to ˜60% confluence, the cells were starved for 24 h in culture medium containing 0.5% FBS. Cells were then treated with GHRH antagonists MIA602 AVR compounds at concentrations of 1, 2.5 or 5 μM, or vehicle (0.1% DMSO) in quintuplicates for 72 hours. The medium was replaced every 48 hours. Cell viability was measured using CellTiter 96 aqueous one solution kit (Promega). Inhibitory effects of tested AVR compounds in comparison to that of MIA602 are presented as inhibitory potency.
# (§4) Inhibitory effects of selected AVR compounds in comparison to that of MIA602 are presented as inhibitory potency (e.g., percentage of inhibition). […] The cell lines tested including lung cancer HCC827 (FIG. 2A), pancreatic cancer CFPAC-1 (FIG. 2B), stomach cancer N87 (FIG. 2C), colon cancer HT-29 (FIG. 2D), breast cancers MX-1 and HCC1806 (FIGS. 2 E, F). Based on the results of cell proliferation assay after cancer cells were treated with antagonist at concentration of 5 μM for 72H, the relative inhibitory potency of AVR antagonists in comparison to MIA-602 is summarized in Table 3 A and B. Over 60 AVR compounds were tested in 12 cancer cell lines.
# (§5) Based on the results of cell proliferation assay after cancer cells were treated with antagonist at concentration of 5 µM for 72H, * at concentration of 2 µM for 72 H.
# MX-1 breast cancer cells = assay: In vitro cell viability, MX-1; assay type: cell-based, human; conditions: Table 3B; 5 μM for 72 H; MIA-602 = 1
# Procedure: as §1, §2, §3, §4, §5
# [2] = test system: SK-OV-3 ovarian cancer cells; assay: In vitro cell viability, SK-OV-3; assay type: cell-based, human; conditions: Table 3B; * at 2 μM for 72 H; MIA-602 = 1
# Procedure: as §1, §2, §3
# (§6) Inhibitory effects of selected AVR compounds in comparison to that of MIA602 are presented as inhibitory potency (e.g., percentage of inhibition). […] The cell lines tested including lung cancer HCC827 (FIG. 2A), pancreatic cancer CFPAC-1 (FIG. 2B), stomach cancer N87 (FIG. 2C), colon cancer HT-29 (FIG. 2D), breast cancers MX-1 and HCC1806 (FIGS. 2 E, F). […]
# [3] = test system: OVCAR-3 ovarian cancer cells; assay: In vitro cell viability, OVCAR-3; assay type: cell-based, human; conditions: Table 3B; * at 2 μM for 72 H; MIA-602 = 1
# Procedure: as §1, §2, §3, §6
# [4] = test system: pancreatic cancer CFPAC-1 xenograft; assay: Xenograft tumor growth in nude mice, CFPAC-1; assay type: in vivo; conditions: Table 4I, Pancreatic Ca CFPAC-1, 7 weeks; for % Inhibition: vs control
# Procedure: (§7) The peptides' activity was compared with GHRH antagonist MIA-602. All statistical analyzses were performed from comparing GHRA antagonists to non-treated tumor (control).
# (§8) Peptides and chemicals. GHRH antagonists MIA-602 and AVR-GHRH antagonists (see Table 2 above) were synthesized by solid phase methods and purified by HPLC. The peptides were dissolved in DMSO and further diluted in 10% 1,2-propanediol. The final concentration of peptides was 50 µg/ml in 10% 1,2-propanediol containing 0.1% of DMSO.
# (§9) Cell culture. Human cancer cell lines including pancreatic (PANC-1 and CFPAC-1), lung (HCC827 and H460), stomach (NCI-N87), prostate (PC3), brest (MX-1 and HCC-1806), colorectal (HT-29), and ovarian (SK-OV-3 and OVCAR-3) were obtained from the American Type Culture Collection (ATCC) and cultured at 37° C. in a humidified 95% air/5% CO2 atmosphere in the medium recommended by ATCC.
# (§10) Xenograft models of human cancers in nude mice. Female athymic (NCr nu/nu) nude mice, 5- to 6-weeks-old, obtained from the Envigo labs (Tampa, Fla.), were housed in laminar airflow cabinets under pathogen-free conditions with a 12-h light/12-h dark schedule, and were fed autoclaved standard chow and water. To generate mice with xenografted tumors, tumor xenografts were initiated by subcutaneous (s.c.) injection of 107 human cancer cells into female nude mice. After about 4 weeks the resulting tumors were dissected and collected after removing necrosis tissues. The tumors were then cut into particles with size of 3 mm3 and transplanted s.c. by trocar needle into experimental animals. When tumors grew to the size of 50-60 mm3 (by volume), mice were randomized into groups and treated daily for 4-8 weeks by subcutaneous administration of 5 μg of GHRH antagonists MIA-602 or AVR-compounds (2-10 μg as indicated), or vehicle solutions (0.1% DMSO in 10% 1,2-propanediol) respectively. Tumor sizes were measured weekly.
# (§11) Statistical analysis. One-way ANOVA followed by Bonferroni comparison were performed. Data are expressed as Mean±SEM. To determine statistical significance between animal groups, two-tailed Student's t-test was conducted. Differences were considered significant when p<0.05.
# (§12) Results. […] FIG. 1A-N represents in vivo inhibition of tumor growth during the treatment with GHRH antagonist MIA-602 and selected AVR antagonists in nude mice xenografted with various human tumors including pancreatic cancer PANC-1 (FIG. 1A) and CFPAC-1 (FIG. 1I); lung cancer HCC827 (FIGS. 1B, C) and H460 (FIG. 1H); stomach cancer N87 (FIGS. 1D-F); colon cancer HT-29 (FIG. 1G); breast cancer MX-1 and HCC-1806 (FIGS. 1J, K); ovarian cancer SK-OV-3 and OVACAR-3 (FIGS. 1 L, M) and prostate cancer PC3 (FIG. 1N). See also Table 5.
# [5] = test system: lung cancer H460 xenograft; assay: Xenograft tumor growth in nude mice, H460; assay type: in vivo; conditions: Table 4H, Lung Ca H460, 4 weeks, 5 μg/day s.c.
# Procedure: as §7, §8, §9, §10, §11, §12
# [6] = test system: ovarian cancer OVCAR-3 xenograft; assay: Xenograft tumor growth in nude mice, OVCAR-3; assay type: in vivo; conditions: Table 4M, Ovarian Ca OVCAR-3, 9 weeks; for % Inhibition: vs control
# Procedure: as §7, §8, §9, §10, §11, §12
# [7] = test system: breast cancer HCC-1806 xenograft; assay: Xenograft tumor growth in nude mice, HCC-1806; assay type: in vivo; conditions: Table 4K, Breast Ca HCC-1806, 5 weeks, 5 μg/day s.c.
# Procedure: as §7, §8, §9, §10, §11, §12
structure (smiles),measurement,setting,value
"CCCC[C@H](NC(=O)[C@@H](NC(=O)[C@H](CC(=O)O)NC(=O)[C@H](CCC(N)=O)NC(=O)[C@H](CC(C)C)NC(=O)[C@H](CC(C)C)NC(=O)[C@H](CCCCN)NC(=O)[C@H](CCCNC(=N)N)NC(=O)[C@H](C)NC(=O)[C@H](CO)NC(=O)[C@H](CC(C)C)NC(=O)[C@H](CCC(N)=O)NC(=O)[C@H](CC)NC(=O)[C@H](CC(C)C)NC(=O)[C@@H](NC(=O)[C@H](CCCCN)NC(=O)[C@H](CCCNC(=N)N)NC(=O)[C@H](Cc1c(F)c(F)c(F)c(F)c1F)NC(=O)[C@H](CCCCNC(=N)N)NC(=O)[C@H](C)NC(=O)[C@@H](NC(=O)[C@H](Cc1ccc(Cl)cc1)NC(=O)[C@@H](NC(=O)[C@H](C)NC(=O)[C@H](CC(=O)O)NC(=O)[C@@H](CCCNC(=N)N)NC(=O)[C@H](Cc1ccc(O)cc1)NC(=O)CCCCCCCCCCCNC(=O)Cc1c(F)c(F)c(F)c(F)c1F)[C@@H](C)CC)[C@@H](C)O)C(C)C)[C@@H](C)CC)C(=O)N[C@H](CCCNC(=N)N)C(=O)N[C@@H](CCCCNC(=N)N)C(=O)NCCCCCCCCCCCC(N)=O [AVR-353, 5FPhAC-Ada-Tyr-DArg-Asp-Ala-Ile-Cpa-Thr-Ala-Har-5FPhe-Arg-Lys-Val-Leu-Abu-Gln-Leu-Ser-Ala-Arg-Lys-Leu-Leu-Gln-Asp-Ile-Nle-DArg-Har-Ada-NH2] ({Phenylacetyl(2,3,4,5,6-F5)-12Ado}-Y[dR]DAI[Phe(4-Cl)]TA[hArg][Phe(F5)]RKVL[Abu]QLSARKLLQDI[Nle][dR][hArg][12Ado]-NH2)","In vitro relative inhibitory potency in comparison to MIA-602, HCC-1806",[1],9.396
same,"In vitro relative inhibitory potency in comparison to MIA-602, MX-1",MX-1 breast cancer cells,2.001
same,"In vitro relative inhibitory potency in comparison to MIA-602, SKOV-3",[2],1.04*
same,"In vitro relative inhibitory potency in comparison to MIA-602, OVCAR-3",[3],1.55*
same,Tumor Growth %,[4]; 2.5 μg/day s.c.,1294.1%
same,% Inhibition,[4]; 2.5 μg/day s.c.,34.3%
same,Tumor Growth %,[4]; 5 μg/day s.c.,1077.6%
same,% Inhibition,[4]; 5 μg/day s.c.,46.2%
same,Tumor Growth %,[5],1335.0%
same,% Inhibition,[5]; vs control,60.5%
same,Tumor Size (mm3),[6]; 2.5 μg/day s.c.,357.0 mm3
same,% Inhibition,[6]; 2.5 μg/day s.c.,25.7%
same,Tumor Size (mm3),[6]; 5 μg/day s.c.,255.2 mm3
same,% Inhibition,[6]; 5 μg/day s.c.,46.9%
"CCCC[C@H](NC(=O)[C@@H](NC(=O)[C@H](CC(=O)O)NC(=O)[C@H](CCC(N)=O)NC(=O)[C@H](CC(C)C)NC(=O)[C@H](CC(C)C)NC(=O)[C@H](CCCCN)NC(=O)[C@H](CCCNC(=N)N)NC(=O)[C@H](C)NC(=O)[C@H](CO)NC(=O)[C@H](CC(C)C)NC(=O)[C@H](CCC(N)=O)NC(=O)[C@H](CC)NC(=O)[C@H](CC(C)C)NC(=O)[C@@H](NC(=O)[C@H](CCCCN)NC(=O)[C@H](CCCNC(=N)N)NC(=O)[C@H](Cc1c(F)c(F)c(F)c(F)c1F)NC(=O)[C@H](CCCCNC(=N)N)NC(=O)[C@H](C)NC(=O)[C@@H](NC(=O)[C@H](Cc1ccc(Cl)cc1)NC(=O)[C@@H](NC(=O)[C@H](C)NC(=O)[C@H](CC(=O)O)NC(=O)[C@@H](CCCNC(=N)N)NC(=O)[C@H](Cc1ccc(O)cc1)NC(=O)CCCCCCCCCCCNC(=O)Cc1c(F)c(F)c(F)c(F)c1F)[C@@H](C)CC)[C@@H](C)O)C(C)C)[C@@H](C)CC)C(=O)N[C@H](CCCNC(=N)N)C(=O)N[C@@H](CCCCNC(=N)N)C(=O)NCCCCCCCCCCCC(=O)NC [AVR-354] ({Phenylacetyl(2,3,4,5,6-F5)-12Ado}-Y[dR]DAI[Phe(4-Cl)]TA[hArg][Phe(F5)]RKVL[Abu]QLSARKLLQDI[Nle][dR][hArg][12Ado]-NHMe)","In vitro relative inhibitory potency in comparison to MIA-602, HCC-1806",[1],3.991
same,"In vitro relative inhibitory potency in comparison to MIA-602, MX-1",MX-1 breast cancer cells,1.594
same,Tumor Growth %,[7],680.2%
same,% Inhibition,[7]; vs control,43.1%
